Test results: patent US20120270237A9, “METHODS FOR THE IDENTIFICATION OF KINASE INTERACTING MOLECULES AND FOR THE PURIFICATION OF KINASE PROTEINS” (Cellzone AG, priority 2009, published 2012)

Columns and labels:
Test in all cases: Kinobeads competition binding, HL60 cell lysate
Parameters in all cases: endogenous in cells
Conditions in all cases: 10 μM free compound
FES = FES (Homo sapiens, UniProt P07332)
Protocol: (§1) To one aliquot of cell lysate 10 μM of the free compound (FIG. 3, CZC31326) was added and allowed to bind to proteins in the lysate. Then the affinity matrix with the immobilized compound (Example 1) was added to capture proteins that were not interacting with the previously added free compound. Beads were separated from the lysate and bead bound proteins were eluted in SDS sample buffer and subsequently separated by SDS-Polyacrylamide gel electrophoresis (FIG. 4). Suitable gel bands were cut out and subjected to in-gel proteolytic digestion with trypsin. The second lysate aliquot was processed identically, however no free compound was added (DMSO solvent control). Peptides originating from samples 1 and 2 were labeled with iTRAQ reagents (iTRAQ 114 and iTRAQ 117) and the combined samples were analyzed with a nano-flow liquid chromatography system coupled online to a tandem mass spectrometer (LC-MS/MS) experiment followed by iTRAQ reporter ion quantification in the MS/MS spectra (Ross et al., 2004. Mol. Cell. Proteomics 3(12):1154-1169). Further experimental protocols can be found in WO2006/134056 and a previous publication (Bantscheff et al., 2007. Nature Biotechnology 25, 1035-1044). Sepharose-beads with the immobilized compound (100 μl beads per pull-down experiment) were equilibrated in lysis buffer and incubated with a cell lysate sample containing 50 mg of protein on an end-over-end shaker (Roto Shake Genie, Scientific Industries Inc.) for 2 hours at 4° C. Beads were collected, transferred to Mobicol-columns (MoBiTech 10055) and washed with 10 ml lysis buffer containing 0.4% NP40 detergent, followed by 5 ml lysis buffer containing 0.2% detergent. To elute bound proteins, 60 μl 2×SDS sample buffer was added to the column. The column was incubated for 30 minutes at 50° C. and the eluate was transferred to a siliconized microfuge tube by centrifugation. Proteins were then alkylated with 108 mM iodoacetamid. Proteins were then separated by SDS-Polyacrylamide electrophoresis (SDS-PAGE). The peptide extracts of samples treated with 10 μM of free compound (CZC31326) and the solvent control (0.5% DMSO) were treated with different variants of the isobaric tagging reagent (iTRAQ Reagents Multiplex Kit, part number 4352135, Applied Biosystems, Foster City, Calif., USA). The iTRAQ reagents are a set of multiplexed, amine-specific, stable isotope reagents that can label peptides on amino groups in up to four different biological samples enabling simultaneous identification and quantitation of peptides. The iTRAQ reagents were used according to instructions provided by the manufacturer. The samples were resuspended in 10 μl 50 mM TEAB solution, pH 8.5 and 10 μl ethanol were added. The iTRAQ reagent was dissolved in 120 μl ethanol and 10 μl of reagent solution were added to the sample. The labeling reaction was performed at room temperature for one hour on a horizontal shaker and stopped by adding 5 μl of 100 mM TEAB and 100 mM glycine in water. The two labeled sampled were then combined, dried in a vacuum centrifuge and resuspended in 10 μl of 0.1% formic acid in water. Relative protein quantitation was performed using peak areas of iTRAQ reporter ion signals essentially as described in an earlier publication (Bantscheff et al., 2007. Nature Biotechnology 25, 1035-1044).

JNK2 = JNK2 (Homo sapiens, UniProt P45984)
Protocol: as §1

MARK3 = MARK3 (Homo sapiens, UniProt P27448)
Protocol: as §1

TBK1 = target: T1, TBK1 (Homo sapiens, UniProt Q9UHD2)
T1 sequence (Q9UHD2 1-729): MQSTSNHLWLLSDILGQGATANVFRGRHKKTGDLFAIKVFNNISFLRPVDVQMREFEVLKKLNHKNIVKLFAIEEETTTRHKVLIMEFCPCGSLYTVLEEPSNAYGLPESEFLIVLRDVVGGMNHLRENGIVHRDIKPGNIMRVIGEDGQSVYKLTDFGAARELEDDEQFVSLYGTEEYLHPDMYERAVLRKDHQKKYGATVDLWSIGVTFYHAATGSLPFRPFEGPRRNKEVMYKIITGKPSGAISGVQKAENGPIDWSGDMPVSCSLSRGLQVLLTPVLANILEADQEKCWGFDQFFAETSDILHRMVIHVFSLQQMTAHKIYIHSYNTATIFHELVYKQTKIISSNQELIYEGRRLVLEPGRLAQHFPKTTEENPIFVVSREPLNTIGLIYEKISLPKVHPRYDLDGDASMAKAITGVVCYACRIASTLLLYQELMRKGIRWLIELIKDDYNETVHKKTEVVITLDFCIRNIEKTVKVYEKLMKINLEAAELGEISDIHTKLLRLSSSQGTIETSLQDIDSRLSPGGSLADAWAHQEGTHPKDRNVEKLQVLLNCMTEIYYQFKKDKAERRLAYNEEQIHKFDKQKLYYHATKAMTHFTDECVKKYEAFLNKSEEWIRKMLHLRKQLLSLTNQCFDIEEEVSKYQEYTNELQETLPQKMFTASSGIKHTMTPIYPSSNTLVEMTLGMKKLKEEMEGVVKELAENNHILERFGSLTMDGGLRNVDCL
Protocol: as §1

Chain of JNK2 (P45984 whole entry): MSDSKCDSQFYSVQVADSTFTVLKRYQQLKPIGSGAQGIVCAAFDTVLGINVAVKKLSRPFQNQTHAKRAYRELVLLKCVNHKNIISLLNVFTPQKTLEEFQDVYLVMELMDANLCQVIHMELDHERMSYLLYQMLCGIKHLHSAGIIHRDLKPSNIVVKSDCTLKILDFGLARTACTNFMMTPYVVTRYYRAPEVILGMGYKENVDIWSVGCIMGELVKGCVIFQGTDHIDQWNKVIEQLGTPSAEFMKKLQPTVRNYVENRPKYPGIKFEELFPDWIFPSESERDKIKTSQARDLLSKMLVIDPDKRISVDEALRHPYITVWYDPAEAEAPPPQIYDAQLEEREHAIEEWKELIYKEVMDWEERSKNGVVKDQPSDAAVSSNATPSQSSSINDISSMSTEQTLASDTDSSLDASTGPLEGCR
Chain of MARK3 (P27448 whole entry): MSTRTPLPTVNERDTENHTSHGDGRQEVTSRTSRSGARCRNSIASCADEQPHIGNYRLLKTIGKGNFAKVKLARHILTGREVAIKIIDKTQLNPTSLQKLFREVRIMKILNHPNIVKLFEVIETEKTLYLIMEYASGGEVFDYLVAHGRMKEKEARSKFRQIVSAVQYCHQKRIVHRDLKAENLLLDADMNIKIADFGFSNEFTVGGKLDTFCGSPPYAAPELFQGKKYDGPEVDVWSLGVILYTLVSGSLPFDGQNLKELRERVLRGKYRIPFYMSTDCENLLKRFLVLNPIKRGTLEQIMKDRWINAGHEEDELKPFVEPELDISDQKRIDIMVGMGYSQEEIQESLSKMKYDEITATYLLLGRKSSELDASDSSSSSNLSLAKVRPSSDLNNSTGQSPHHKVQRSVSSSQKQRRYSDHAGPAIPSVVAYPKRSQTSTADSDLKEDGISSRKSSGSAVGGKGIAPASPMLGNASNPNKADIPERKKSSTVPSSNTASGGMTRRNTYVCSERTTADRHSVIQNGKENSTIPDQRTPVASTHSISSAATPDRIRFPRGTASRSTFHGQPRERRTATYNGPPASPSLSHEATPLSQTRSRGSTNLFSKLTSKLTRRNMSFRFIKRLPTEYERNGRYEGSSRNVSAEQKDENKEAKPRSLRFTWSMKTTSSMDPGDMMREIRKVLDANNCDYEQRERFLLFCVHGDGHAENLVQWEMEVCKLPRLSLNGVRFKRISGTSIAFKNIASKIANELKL
Chain of FES (P07332 whole entry): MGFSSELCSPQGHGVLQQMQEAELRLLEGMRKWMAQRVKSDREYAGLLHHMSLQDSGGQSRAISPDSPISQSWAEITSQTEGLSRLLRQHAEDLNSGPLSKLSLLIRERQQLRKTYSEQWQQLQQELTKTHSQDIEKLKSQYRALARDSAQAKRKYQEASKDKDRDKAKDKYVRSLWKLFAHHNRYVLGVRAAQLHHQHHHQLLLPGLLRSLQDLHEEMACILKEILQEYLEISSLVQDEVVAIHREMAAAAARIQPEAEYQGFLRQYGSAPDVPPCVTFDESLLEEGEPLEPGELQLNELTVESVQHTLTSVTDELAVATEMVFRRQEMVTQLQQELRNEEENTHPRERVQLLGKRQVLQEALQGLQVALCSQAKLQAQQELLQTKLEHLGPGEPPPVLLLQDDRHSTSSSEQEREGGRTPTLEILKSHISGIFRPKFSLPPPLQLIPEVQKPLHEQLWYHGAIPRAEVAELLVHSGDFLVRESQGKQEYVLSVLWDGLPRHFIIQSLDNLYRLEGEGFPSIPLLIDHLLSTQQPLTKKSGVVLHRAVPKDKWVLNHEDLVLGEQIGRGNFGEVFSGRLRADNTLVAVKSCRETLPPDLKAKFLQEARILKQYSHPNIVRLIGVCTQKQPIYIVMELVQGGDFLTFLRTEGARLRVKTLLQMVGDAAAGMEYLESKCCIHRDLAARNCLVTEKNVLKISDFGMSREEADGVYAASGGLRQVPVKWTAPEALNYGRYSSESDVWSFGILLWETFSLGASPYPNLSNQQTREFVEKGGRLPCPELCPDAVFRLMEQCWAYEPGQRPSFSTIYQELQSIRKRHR

With `CS(=O)(=O)Nc1ccccc1Nc1nc(Nc2cccc(OCCN)c2)ncc1Cl` [CZC31326, N-(2-(2-(3-(2-aminoethoxy)phenylamino)-5-chloropyrimidin-4-ylamino)phenyl)methanesulfonamide] the inhibition at 10 µM (FES) was 96.3%, the Competition % (JNK2) was 87.8% and the inhibition at 10 µM (MARK3) was 97.2%. For the same compound, the inhibition at 10 µM (TBK1) was 94.8%.
